Earlier results in patent US20130267526A1, “HETEROCYCLIC COMPOUNDS AND THEIR USES” (Amgen, Inc., priority 2010, published 2013).

Experiments:
[1] = test system: mouse model of rheumatoid arthritis; settings: in vivo
[2] = test system: model of systemic lupus erythematosis; settings: in vivo
p110δ = molecular target: T1, p110δ (Homo sapiens, UniProt O00329)
T1 sequence (O00329 1-1044): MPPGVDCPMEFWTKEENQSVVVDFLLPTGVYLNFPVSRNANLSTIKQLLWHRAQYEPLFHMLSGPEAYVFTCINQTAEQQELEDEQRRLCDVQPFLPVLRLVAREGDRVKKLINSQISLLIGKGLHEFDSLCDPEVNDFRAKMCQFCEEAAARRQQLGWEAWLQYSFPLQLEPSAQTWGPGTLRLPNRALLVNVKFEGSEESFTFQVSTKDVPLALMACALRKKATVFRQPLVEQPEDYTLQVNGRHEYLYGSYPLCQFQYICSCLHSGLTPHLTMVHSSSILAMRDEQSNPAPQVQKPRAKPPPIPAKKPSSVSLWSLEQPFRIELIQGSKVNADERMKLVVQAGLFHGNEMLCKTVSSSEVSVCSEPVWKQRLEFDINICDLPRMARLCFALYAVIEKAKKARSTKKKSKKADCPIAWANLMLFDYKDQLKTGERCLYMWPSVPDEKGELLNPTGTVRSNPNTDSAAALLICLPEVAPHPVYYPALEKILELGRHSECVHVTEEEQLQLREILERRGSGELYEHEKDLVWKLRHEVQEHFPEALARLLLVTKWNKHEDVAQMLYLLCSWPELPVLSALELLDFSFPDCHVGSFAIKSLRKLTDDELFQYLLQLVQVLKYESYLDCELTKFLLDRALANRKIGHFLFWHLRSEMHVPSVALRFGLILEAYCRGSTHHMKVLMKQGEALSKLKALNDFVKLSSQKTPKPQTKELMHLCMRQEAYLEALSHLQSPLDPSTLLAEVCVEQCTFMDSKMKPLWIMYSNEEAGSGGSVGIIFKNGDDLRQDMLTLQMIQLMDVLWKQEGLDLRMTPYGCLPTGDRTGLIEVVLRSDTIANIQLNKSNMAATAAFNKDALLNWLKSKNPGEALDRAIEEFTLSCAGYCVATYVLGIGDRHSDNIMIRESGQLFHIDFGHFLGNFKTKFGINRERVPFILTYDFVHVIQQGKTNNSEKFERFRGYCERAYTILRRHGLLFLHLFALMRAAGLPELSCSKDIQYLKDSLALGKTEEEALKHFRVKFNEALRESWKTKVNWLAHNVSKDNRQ

[3] = test system: passive cutaneous anaphylaxis (PCA); settings: absence of functional delta (IC 87114 and p110δ D910A mice)
[4] = test system: ovalbumin-induced airway inflammation

| Compound | efficacy in a mouse model of rheumatoid arthritis [1] | onset of disease in a model of systemic lupus erythematosis [2] | inhibition of p110δ (p110δ) | activity against any protein kinases tested (protein kinases) | passive cutaneous anaphylaxis (PCA) [3] | inflammation and disease in murine asthma model [4] |
| --- | --- | --- | --- | --- | --- | --- |
| O=C1NC(=O)/C(=C\c2ccc3nccnc3c2)S1 [AS 605240] | efficacious | delay onset of disease |  |  |  |  |
| Cc1ccccc1-n1c(Cn2cnc3c(N)ncnc32)nc2cccc(C)c2c1=O [IC87114] |  |  | high nanomolar range (triple digit) | no activity | significantly reduced | significantly ameliorate |
